Assay results reported in patent publication US7968526B2, “Antisense oligonucleotides directed to ribonucleotide reductase R2 and uses thereof in the treatment of cancer” (Lorus Therapeutics Inc., priority 2003, dated 2011).
“Also recorded” adds a separate entry of the source.

What was measured:
[1] = 21-day continuous infusion toxicity study in the monkey with a 3-week recovery; assay type: in vivo
Experimental: A second repeat-dose study was conducted in monkeys to evaluate the toxicity associated with administration of test article by continuous intravenous infusion for 21 days followed by a 21-day recovery period. Twenty-eight monkeys were administered one of the following dose levels; vehicle control, 2 mg/kg/day, 10 mg/kg/day, or 50 mg/kg/day. Toxicokinetic samples were collected prior to the initiation of infusion, approximately 8, 24, 48, and 96 hours following the start of infusion, and on Day 20 prior to the change in dose-syringes. […] As in the previous rat study, the 2 mg/kg/day dose level was identified as the no-adverse-effect-level (NOAEL).

[2] = tested on: MDA-MB435-To.1 human Taxol-resistant breast adenocarcinoma cells; assay: MDA-MB435-To.1 Taxol-resistant breast adenocarcinoma, fat pad, SCID mice (2.5); assay type: in vivo, human cells in mice
Experimental: (§1) BxPC-3 is a gemcitabine resistant call line. […] Gemcitabine was administered intravenously every three days at a dose of 100 mg/kg. Antitumour activities were estimated by the inhibition of tumour volume, which was measured with caliper. Each point represents mean tumour volume calculated from 10 animals per experimental group. […] Hela S3 is a hydroxyurea resistant cell line. […] Hydroxyurea was administered intraperitoneally every day at a dose of 250 mg/kg for 10 days. Cisplatin was administered intravenously once a week for three weeks at a dose of 4 mg/kg. Antitumour activities were estimated by the inhibition of tumour volume, which was measured with caliper. Each point represents mean tumour volume calculated from 10 animals per experimental group. […] Cisplatin was administered intravenously once a week for three weeks at a dose of 4 mg/kg. Taxol was administered intravenously once a week for three weeks at a dose of 10 mg/kg. Antitumour activities were estimated by the inhibition of tumour volume, which was measured with caliper. Each point represents mean tumour volume calculated from 10 animals per experimental group. […] Taxol was administered i.p. once a week at a dose of 10 mg/kg. Antitumour activities were estimated by the inhibition of tumour volume (FIG. 12A), which was measured with calipers. Each point represents mean tumour volume calculated from 10 animals per experimental group. Animals were sacrificed and tumour weights taken at the end of the study (FIG. 12C). […] Cisplatin was administered intravenously once a week for four weeks at a dose of 4 mg/kg. Taxol was administered intravenously once a week for four weeks at a dose of 20 mg/kg. Antitumour activities were estimated by the inhibition of tumour volume, which was measured with caliper. Each point represents mean tumour volume calculated from 9-10 animals per experimental group. […] Cisplatin was administered intravenously once a week for four weeks at a dose of 4 mg/kg. Antitumour activities were estimated by the inhibition of tumour volume, which was measured with caliper. Each point represents mean tumour volume calculated from 10 animals per experimental group. At the end of the study the animals were sacrificed and tumours weighed. […] Taxol was administered i.p. once a week at a dose of 10 mg/kg. Anti-tumour activity was estimated by the inhibition of tumour volume, which was measured with caliper. Each point represents mean tumour volume calculated from 10 animals per experimental group. In addition animals were sacrificed and tumour weights taken at the end of the study. […] CPT-11 was administered i.p. for 5 days at a dose of 20 mg/kg/day. Antitumour activities were estimated by the inhibition of tumour volume, which was measured with caliper. Each point represents mean tumour volume calculated from 10 animals per experimental group. Tumour weights were measured after animals were sacrificed at the end of the treatment. These cells are not resistant to CPT-11 which was used as a positive control.

[3] = tested on: Hela S3 human cervix epitheloid carcinoma cells; assay: Hela S3 hydroxyurea resistant cervix carcinoma xenograft in SCID mice; assay type: in vivo, human cells in mice
Experimental: as §1, with “12C). […] The effects of combined treatment were greater than either treatment alone.” for “12C).”

[4] = continuous i.v. infusion 21 days

For “5′-GGCTAAATCGCTCCACCAAG-3′ (all phosphorothioate, sugars by position and methylation of C not given here) [SEQ ID NO: 1, fully phosphorothioated antisense oligonucleotide that hybridizes to the coding region of R2 mRNA]”, the Deaths ([1]; 2, 10 or 50 mg/kg/day continuous i.v. infusion 21 days) was “No unplanned deaths”, the Reversibility of changes ([1]; 3-week post-dosing treatment-free period) was “reversed either completely or partially” and the Toxicity findings ([1]; 10 and 50 mg/kg/day continuous i.v. infusion 21 days) was “splenic histiocytosis, anticoagulant effects, complement activation, and continuous infusion effects”. For the same substance, the “Target organs (histopathologic changes)” value [1, 4] was “kidneys, liver, and lymph nodes”, the “no-adverse-effect-level (NOAEL)” value [1, 4] was 2 mg/kg/day and the “Tumour weight as % of saline control” value ([2]; MDA-MB435-To.1 (breast), Taxol resistant, SCID, SEQ ID NO:1 10 mg/kg i.v. every other day 15 times, Taxol 20 mg/kg, Cisplatin 4 mg/kg i.v. weekly x4) was 42%. The “Antitumour effect (FIG. 13)” value ([2]; MDA-MB435-To.1 Taxol-resistant, SCID mice, SEQ ID NO:1 10 mg/kg i.v. every other day, Cisplatin 4 mg/kg, Taxol 20 mg/kg i.v. weekly) was “significant reduction of tumour weight compared to saline control; also recorded: superior to the inhibitory effects observed with Cisplatin”, the “Tumour weight as % of saline control” value ([3]; Hela S3 (cervix), hydroxyurea resistant, SCID, SEQ ID NO:1 10 mg/kg i.v. every other day 6 times, Hydroxyurea 250 mg/kg i.p. daily 10 days, Cisplatin 4 mg/kg i.v. weekly x3) was 24% and the “Antitumour effect (tumour volume, FIG. 10)” value ([3]; Hela S3 hydroxyurea resistant, SCID mice, SEQ ID NO:1 10 mg/kg i.v. every other day, Hydroxyurea 250 mg/kg i.p. daily, Cisplatin 4 mg/kg i.v. weekly) was “significant delay of tumour growth compared to saline control; also recorded: superior to the inhibitory effects observed with Cisplatin alone”.
